# Data published in patent publication US10683297B2 (Sunshine Lake Pharma Co., Ltd., priority 2017, dated 2020).
# Legend:
# JAK1 (h) = biological target: T1, JAK1 (h) (Homo sapiens, UniProt P23458); experiment: JAK1 (h) kinase assay; format: biochemical; conditions: [γ-33P-ATP] 10 μM or KM values; 40 minutes at room temperature
# T1 construct: purchased Millipore UK Ltd (assays performed there as a service)
# Procedure: The above assay procedure can be used to determine the IC50 for inhibition and/or the inhibition constant, Ki. […] The IC50 value is estimated by preparing a 10 point curve using a ½ log dilution series (for example, a typical curve may be prepared using the following compound concentrations: 3 μM, 1 μM, 0.3 μM, 0.1 μM, 0.03 μM, 0.01 μM, 0.003 μM, 0.001 μM, 0.0003 μM and 0 μM).
# JAK1 (h) is incubated with 20 mM Tris/HCl pH 7.5, 0.2 mM EDTA, 500 μM […], 10 mM MgAcetate and [γ-^33P-ATP] […] The reaction is initiated by the addition of the MgATP mix. After incubation for 40 minutes at room temperature, the reaction is stopped by the addition of 3% phosphoric acid solution. 10 μL of the reaction is then spotted onto a P30 filtermat and washed three times for 5 minutes in 75 mM phosphoric acid and once in methanol prior to drying and scintillation counting.
# The kinase assays described herein were performed at Millipore UK Ltd, Dundee Technology Park, Dundee DD2 1SW, UK.
# [1] = Compound stability in rat liver microsomes; format: in vitro ADME; conditions: for CLint scaled at 5 μM: liver microsomes, pH 7.4, in vivo CLint extrapolated from rat liver microsome incubation; for half-life at 5 μM: rat liver microsomes 0.5 mg protein/mL, compound 5 μM, NADPH 1.0 mM, pH 7.4, 37° C., read-out: Rat T1/2
# Procedure: (§1) The LC/MS/MS system used in the analysis consists of an Agilent 1200 Series vacuum degasser, binary pump, well-plate autosampler, thermostatted column compartment, the Agilent G6430 Triple Quadrupole Mass Spectrometer with an electrosprayionization (ESI) source. Quantitative analysis was carried out using MRM mode. The parameters for MRM transitions are in the Table A.
# (§2) An Agilent XDB-C18, 2.1×30 mm, 3.5 μM column was used for the analysis. 5 μL of the samples were injected. Analysis condition: The mobile phase was 0.1% formic acid in water (A) and 0.1% formic acid in methanol (B). The flow rate was 0.4 mL/min. And the gradient of Mobile phase was in the Table B.
# (§3) Alternatively, an Agilent 6330 series LC/MS/MS spectrometer equipped with G1312A binary pumps, a G1367A autosampler and a G1314C UV detector were used in the analysis. An ESI source was used on the LC/MS/MS spectrometer. The analysis was done in positive ion mode as appropriate and the MRM transition for each analyte was optimized using standard solution. A Capcell MP-C18 100×4.6 mm I.D., 5 uM column (Phenomenex, Torrance, Calif., USA) was used during the analysis. The mobile phase was 5 mM ammonia acetate, 0.1% MeOH in water (A): 5 mM ammonia acetate, 0.1% MeOH in acetonitrile (B) (70/30, v/v). The flow rate was 0.6 mL/min. Column was maintained at ambient temperature. 20 μL of the samples were injected.
# (§4) Human or rat liver microsomes incubations were conducted in duplicate in polypropylene tubes. The typical incubation mixtures consisted of human or rat liver microsomes (0.5 mg protein/mL), compounds of interest (5 μM) and NADPH (1.0 mM) in a total volume of 200 μL potassium phosphate buffer (PBS, 100 mM, pH 7.4). Compounds were dissolved in DMSO and diluted with PBS such that the final concentration of DMSO was 0.05%. The enzymatic reactions were commenced with the addition of […] after a 3-min preincubation and incubated in a water bath open to the air at 37° C. Reactions were terminated at various time points (0, 5, 10, 15, 30, 60 min) by adding equal volume of ice-cold acetonitrile. The samples were stored at […] until LC/MS/MS assays.
# (§5) The concentrations of compounds in the incubation mixtures of human or rat liver microsomes were determined by a LC/MS/MS method. The ranges of the linearity in the concentration range were determined for each tested compounds.
# (§6) A parallel incubation was performed using denatured microsomes as the negative control, and reactions were terminated at various time points (0, 15, 60 min) after incubation at 37° C.
# (§7) Dextromethorphan (70 μM) was selected as the positive control, and reactions were terminated at various time points (0, 5, 10, 15, 30, 60 min) after incubation at 37° C. Both positive and negative control samples were included in each assay to ensure the integrity of the microsomal incubation system.
# (§8) The concentrations of compounds in human or rat liver microsome incubations were plotted as a percentage of the relevant zero time point control for each reaction. The in vivo CLint were extrapolated (ref.: Naritomi, Y.; Terashita, S.; Kimura, S.; Suzuki, A.; Kagayama, A.; and Sugiyama, Y.; Prediction of human hepatic clearance from in vivo animal experiments and in vitro metabolic studies with liver microsomes from animals and humans. Drug Metab. Dispos., 2001, 29: 1316-1324).
# [2] = Compound stability in human liver microsomes; format: in vitro ADME; conditions: for half-life at 5 μM: human liver microsomes 0.5 mg protein/mL, compound 5 μM, NADPH 1.0 mM, pH 7.4, 37° C., read-out: Human T1/2; for CLint scaled at 5 μM: liver microsomes, pH 7.4, in vivo CLint extrapolated from human liver microsome incubation
# Procedure: as §1, §2, §3, §4, §5, §6, §7, §8
# [3] = Pharmacokinetics after intravenous and oral administration in rats; format: in vivo; conditions: for Clearance (CL) after iv dosing / AUC(0-t) / half-life / Vd: dose 1 mg/kg (Ex. 9: 0.6, Ex. 18: 0.5, Ex. 50: 0.96 mg/kg), iv dosing; for AUC(0-t) / half-life / Vd / bioavailability: rat, plasma; for Vd: read-out: Vss; for bioavailability: oral (generally 5 or 10 mg/kg) versus iv dosing, read-out: F (oral bioavailability)
# Procedure: as §1, §2, §3
# The compounds disclosed herein are assessed in pharmacokinetic studies in mice, rats, dogs or monkeys. The compounds are administered as a water solution, 2% HPMC+1% TWEEN®80 in water solution, 5% DMSO+5% solutol in saline, 4% MC suspension or capsule. For the intravenous administration, the animals are generally given at about 0.5, 0.6, 1 or 2 mg/kg dose. For the oral (p.o.) dosing, mice and rats are generally given 5 or 10 mg/kg dose, and dogs and monkeys are generally given 10 mg/kg dose. The blood samples (0.3 mL) are drawn at 0.25, 0.5, 1.0, 2.0, 3.0, 4.0, 6.0, 8.0, 12 and 24 h time points or 0.083, 0.25, 0.5, 1.0, 2.0, 4.0, 6.0, 8.0 and 24 h time points and centrifuged at 3,000 or 4000 rpm for 2 to 10 min. The plasma solutions are collected, and stored at […] until analyzed by LC/MS/MS as described above.
# T1 sequence (P23458 whole entry): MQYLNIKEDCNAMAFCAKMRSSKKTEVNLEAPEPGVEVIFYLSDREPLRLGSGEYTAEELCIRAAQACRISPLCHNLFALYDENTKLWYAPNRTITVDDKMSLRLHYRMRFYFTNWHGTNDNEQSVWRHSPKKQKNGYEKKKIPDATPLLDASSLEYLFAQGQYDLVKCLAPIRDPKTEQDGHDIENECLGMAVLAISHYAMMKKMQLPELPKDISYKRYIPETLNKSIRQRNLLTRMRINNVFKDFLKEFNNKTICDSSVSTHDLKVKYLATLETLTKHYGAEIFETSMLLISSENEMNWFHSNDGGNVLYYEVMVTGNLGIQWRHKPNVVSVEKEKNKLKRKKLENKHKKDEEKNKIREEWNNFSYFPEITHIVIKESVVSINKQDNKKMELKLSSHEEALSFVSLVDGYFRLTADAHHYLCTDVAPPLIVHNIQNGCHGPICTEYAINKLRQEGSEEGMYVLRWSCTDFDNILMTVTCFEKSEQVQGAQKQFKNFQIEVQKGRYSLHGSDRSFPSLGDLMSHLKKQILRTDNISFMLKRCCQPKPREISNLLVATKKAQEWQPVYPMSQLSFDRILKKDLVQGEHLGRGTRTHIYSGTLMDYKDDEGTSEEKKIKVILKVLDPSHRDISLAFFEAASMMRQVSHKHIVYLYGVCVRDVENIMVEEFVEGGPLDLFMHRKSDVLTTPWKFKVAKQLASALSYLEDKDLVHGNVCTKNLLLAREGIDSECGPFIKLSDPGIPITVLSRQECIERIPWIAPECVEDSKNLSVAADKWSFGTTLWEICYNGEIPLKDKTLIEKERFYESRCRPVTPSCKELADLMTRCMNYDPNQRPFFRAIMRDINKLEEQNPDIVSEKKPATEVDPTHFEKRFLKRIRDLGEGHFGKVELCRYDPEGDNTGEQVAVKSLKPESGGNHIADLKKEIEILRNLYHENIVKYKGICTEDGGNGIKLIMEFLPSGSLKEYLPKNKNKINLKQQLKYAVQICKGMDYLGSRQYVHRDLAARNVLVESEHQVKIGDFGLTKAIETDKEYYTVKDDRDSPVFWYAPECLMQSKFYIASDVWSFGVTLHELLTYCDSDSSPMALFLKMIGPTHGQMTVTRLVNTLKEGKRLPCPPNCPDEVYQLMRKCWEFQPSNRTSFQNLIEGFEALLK
Compound,IC50 (JAK1 (h)) [nM],CLint scaled at 5 μM [1] [mL/min/kg],half-life at 5 μM [1] [min],half-life at 5 μM [2] [min],CLint scaled at 5 μM [2] [mL/min/kg],Clearance (CL) after iv dosing [3] [mL/min/kg],AUC(0-t) [3] [ng·h/mL],half-life [3] [min],Vd [3] [L/kg],bioavailability [3] [%]
"Cc1nnc2cc(Nc3ncc(Cl)c(NC4CCN(c5ccc(C#N)cn5)CC4)n3)cnn12 [Example 25, 6-(4-((5-chloro-2-((3-methyl-[1,2,4]triazolo[4,3-b]pyridazin-7-yl)amino)pyrimidin-4-yl)amino)piperidin-1-yl)nicotinonitrile]",3,54.9,45.2,61,28.5,–,–,–,–,–
"CC(C)(O)c1nc2cc(Nc3ncc(Cl)c(NC4CCN(c5ccc(C#N)cc5)CC4)n3)ccn2n1 [Example 81, 4-(4-((5-chloro-2-((2-(2-hydroxypropan-2-yl)-[1,2,4]triazolo[1,5-a]pyridin-7-yl)amino)pyrimidin-4-yl)amino)piperidin-1-yl)benzonitrile]",< 0.3,25.5,97.3,419,4.1,162,1710,79.8,0.946,99.6
"N#Cc1ccc(N2CCC(Nc3nc(Nc4ccn5c(C6CC6)cnc5c4)ncc3Cl)CC2)nn1 [Example 14, 6-(4-((5-chloro-2-((3-cyclopropylimidazo[1,2-a]pyridin-7-yl)amino)pyrimidin-4-yl)amino)piperidin-1-yl)pyridazine-3-carbonitrile]",3,232,10.7,26.1,66.7,–,–,–,–,–
"CC(C)(O)Cn1cnc2cc(Nc3ncc(Cl)c(NC4CCN(c5ccc(C#N)cn5)CC4)n3)ccc21 [Example 64, 6-(4-((5-chloro-2-((1-(2-hydroxy-2-methylpropyl)-1H-benzo[d]imidazol-5-yl)amino)pyrimidin-4-yl)amino)piperidin-1-yl)nicotinonitrile]",0.5,249,10,40.3,43.2,–,–,–,–,–
"Cc1nnc2cc(Nc3ncc(Cl)c(NC4CCN(c5ccc(C#N)nn5)CC4)n3)ccn12 [Example 20, 6-(4-((5-chloro-2-((3-methyl-[1,2,4]triazolo[4,3-a]pyridin-7-yl)amino)pyrimidin-4-yl)amino)piperidin-1-yl)pyridazine-3-carbonitrile]",0.5,30,82.7,153,11.3,–,–,–,–,–
"Cc1cnc2ccc(Nc3ncc(Cl)c(NC4CCN(c5ccc(C#N)nn5)CC4)n3)cn12 [Example 13, 6-(4-((5-chloro-2-((3-methylimidazo[1,2-a]pyridin-6-yl)amino)pyrimidin-4-yl)amino)piperidin-1-yl)pyridazine-3-carbonitrile]",0.5,23.3,107,21.8,79.8,–,–,–,–,–
"CC(C)(O)Cc1cnc2cc(Nc3ncc(Cl)c(NC4CCN(c5ccc(C#N)nn5)CC4)n3)ccn12 [Example 80, 6-(4-((5-chloro-2-((3-(2-hydroxy-2-methylpropyl)imidazo[1,2-a]pyridin-7-yl)amino)pyrimidin-4-yl)amino)piperidin-1-yl)pyridazine-3-carbonitrile]",0.6,131,19,40.7,42.7,–,–,–,–,–
"CC(C)(O)c1cnc2cc(Nc3ncc(Cl)c(NC4CCN(c5ccc(C#N)nn5)CC4)n3)ccn12 [Example 66, 6-(4-((5-chloro-2-((3-(2-hydroxypropan-2-yl]imidazo[1,2-a]pyridin-7-yl)amino)pyrimidin-4-yl)amino)piperidin-1-yl)pyridazine-3-carbonitrile]",0.3,68.5,36.2,25.6,67.9,–,–,–,–,–
"CC(C)(F)c1nc2cc(Nc3ncc(Cl)c(NC4CCN(c5ccc(C#N)cn5)CC4)n3)ccn2n1 [Example 59, 6-(4-((5-chloro-2-((2-(2-fluoropropan-2-yl)-[1,2,4]triazolo[1,5-a]pyridin-7-yl)amino)pyrimidin-4-yl)amino)piperidin-1-yl)nicotinonitrile]",0.7,86.8,28.6,69.3,25.1,–,–,–,–,–
"CC(O)c1cnc2cc(Nc3ncc(Cl)c(NC4CCN(c5ccc(C#N)cn5)CC4)n3)ccn12 (stereo not drawn) [Example 43, 6-(4-((5-chloro-2-((3-(1-hydroxyethyl)imidazo[1,2-a]pyridin-7-yl)amino)pyrimidin-4-yl)amino)piperidin-1-yl)nicotinonitrile]",< 0.3,57.5,43.2,23.5,74.1,–,–,–,–,–
CC(C)(O)c1cn2ccc(Nc3ncc(Cl)c(NC4CCN(c5ccc(C#N)nn5)CC4)n3)cc2n1 [Example 71],0.9,438,5.67,18.9,91.8,–,–,–,–,–
"Cc1cnc2cc(Nc3ncc(Cl)c(NC4CCN(c5ccc(C#N)cn5)CC4)n3)cnn12 [Example 21, 6-(4-((5-chloro-2-((3-methylimidazo[1,2-b]pyridazin-7-yl)amino)pyrimidin-4-yl)amino)piperidin-1-yl)nicotinonitrile]",< 0.3,–,–,–,–,11.8,1420,43.2,0.84,37
